Usually IC50 stands for the concentration that inhibits the measured activity by half. High values mean a need for much substance, low ones inhibition by little substance.

The text below walks through data of EP1674467A1, “2,5- and 2,6-disubstituted benzazole derivatives useful as protein kinase inhibitors” (4SC AG, priority 2004, dated 2006).

Where only a bound is given, the exact number is not on record here.

The target of the test is at least one kinase selected from Aurora-A, Aurora-B, EGF-R, ERBB2, PDGFR, IGF1-R, VEGF-R2, VEGF-R3, EPHB4, Tie2, and SRC. Description: 33PanQinase Activity Assay (protein kinase assay). In kind it is biochemical, human. The settings on record: on at least one kinase of the listed panel, or on at least two kinases from at least two different molecular mechanisms of tumor progression; 1 µM [γ-33P]-ATP, 30°C, 80 minutes. How it is done: The effect of the benzazole derivatives was tested on recombinant, human protein kinases. All protein kinases were expressed in Sf9 insect cells as human recombinant GST-fusion proteins or as His-tagged proteins by means of the baculovirus expression system. Protein kinases were purified by affinity chromatography using either GSH-agarose or Ni-NTH-agarose. The purity and identity of each was checked by SDS-PAGE/silver staining and by western blot analysis with specific antibodies.
A proprietary protein kinase assay (^33PanQinase® Activity Assay) was used for measuring the kinase activity. All kinase assays were performed in 96-well FlashPlates™ in a 50 µl reaction volume. The assay for all enzymes contained 60 mM HEPES-NaOH, pH 7.5, 3 mM MgCl2, 3 mM MnCl2, 3 µM Na-orthovanadate, 1.2 mM DTT, 50 µg/ml PEG20000 and 1 µM [γ-^33P]-ATP (approx. 5x10^5 cpm per well). The reaction cocktails were incubated at 30°C for 80 minutes. The reaction was stopped with 50 µl of 2% (v/v) H3PO4, plates were aspirated and washed two times with 200 µl of 0.9% (w/v) NaCl. Incorporation of ^33Pi was determined with a microplate scintillation counter. All assays were performed with a BeckmanCoulter/ Sagian robotic system.
Consider `COc1cc2ncnc(Nc3nc4ccc(NC(=O)c5cccc(OC(F)(F)F)c5)cc4s3)c2cc1OC` [Example 11, N-[2-(6,7-Dimethoxyquinazolin-4-ylamino)-benzothiazol-6-yl]-3-trifluoromethoxybenzamide], for which the IC50 was < 500 nM.
To `COc1cc2ncnc(Nc3nc4ccc(NC(=O)Nc5ccccc5)cc4s3)c2cc1OC` [Example 12, 1-[2-(6,7-Dimethoxyquinazolin-4-ylamino)benzothiazol-6-yl]-3-phenylurea] belongs < 500 nM; to `COc1cc2ncnc(Nc3nc4ccc(NC(=O)Nc5cccc(F)c5)cc4s3)c2cc1OC` [Example 14, 1-[2-(6,7-Dimethoxyquinazolin-4-ylamino)benzothiazol-6-yl]-3-(3-fluorophenyl)urea], < 500 nM.
To `COc1cc2ncnc(Nc3nc4ccc(NC(=O)Nc5cccc(C(F)(F)F)c5)cc4s3)c2cc1OC` [Example 15, 1-[2-(6,7-Dimethoxyquinazolin-4-ylamino)benzothiazol-6-yl]-3-(3-trifluoromethylphenyl)urea] belongs < 500 nM; to `COc1cc2ncnc(Nc3nc4ccc(NC(=O)Nc5ccc(Cl)c(C(F)(F)F)c5)cc4s3)c2cc1OC` [Example 18, 1-(4-Chloro-3-trifluoromethylphenyl)-3-[2-(6,7-dimethoxyquinazolin-4-yl-amino)benzothiazol-6-yl]urea], < 500 nM.
To `COc1cc2c(Nc3nc4ccc(NC(=O)Nc5ccc(Cl)c(C(F)(F)F)c5)cc4s3)ncnc2cc1OCCCN1CCN(C)CC1` [Example 19, 1-(4-Chloro-3-trifluoromethylphenyl)-3-(2-{6-methoxy-7-[3-(4-methylpiperazin-1-yl)-propoxy]quinazolin-4-ylamino}benzothiazol-6-yl)urea] belongs < 500 nM.
Take `COc1cc2ncnc(Nc3nc4cc(NC(=O)Nc5ccc(Cl)c(C(F)(F)F)c5)ccc4s3)c2cc1OC` [Example 20, 1-(4-Chloro-3-trifluoromethylphenyl)-3-[2-(6,7-dimethoxyquinazolin-4-yl-amino)benzothiazol-5-yl]urea]: the IC50 is < 500 nM.
